In brackets after ≈: the same amount, converted by molar mass. Entries after “also recorded” stand apart in the source; their conditions may differ. Like-named read-outs stand apart in the source and are kept apart here.
What was measured:
[1] = test system: herpes simplex virus Type I (HSV I); test: Inhibition of virus replication (plaque assay, BHK-21 cells); assay type: cell-based, Type 1, Troisbel strain; conditions: for Viral titre (inhibition of replication): control 9.0 × 10^8; for log reduction at 0.1 µg/mL: 0.1 mg/l; for log reduction at 0.5 µg/mL: 0.5 mg/l
Description: 1. Mono-layers of baby hamster kidney cells (BHK-21) are prepared in Petri dishes containing ETC medium (Eagle's minimal essential medium +10% tryptose phosphate broth +10% new born calf serum).
2. After incubation the medium is poured off to leave the layer of cells attached to the Petri dish. A solution containing virus, specifically herpes simplex virus Type I (HSV I) for example, in ETC medium is then added to the dish and incubated with intermittent rocking for one hour to allow the virus to adsorb to the cells of the mono-layer. Unadsorbed virus is then removed by pouring off the virus-containing medium and washing twice with new sterile medium. Then new medium is added to each Petri dish. At this stage various concentrations of drug can be added to the medium.
3. […] First the dishes are frozen to -70° C. and thawed to disrupt the mono-layer and break up the cells. Then the medium and the disrupted cells are transferred to bijou bottles and sonicated to break down the cells completely and to release all the virus particles the cells contain. The sonicated medium is then diluted with fresh sterile ETC medium to give concentrations of the original Petri dish fluid of 10^-2, 10^-4, 10^-6 and 10^-8.
4. The number of virus particles (plaque forming units) in the dilutions is then assayed. A standard number of BHK cells (usually 8×10^6) is added to 2 ml of the diluted solutions and incubated for one hour, with cautious, gentle shaking, and 8 ml of Eagle's minimal essential medium +2% new born calf serum + carboxymethyl cellulose is then added to the cell suspension. This medium has gelling properties which prevent spreading of the virus through the medium and which encourage the formation of discrete plaques in cell mono-layers. The medium from each dilution is then dispensed into Petri dishes and incubated for two to three days.
5. The number of plaques formed is then counted and the amount of active virus expressed as the number of plaque forming units (pfus) as follows. The medium is poured off and the cell mono-layer is fixed using 10% formol saline and stained with dilute carbol fuchsin. The number of plaques in each Petri dish is counted. Based on the dilutions, the number of plaque forming virus particles in the original solutions is calculated.
In the Table, the figures are the concentration of viral particles in pfu/ml present in the cells + medium at the end of the replication stage (3).

[2] = test system: herpes simplex virus Type I; test: Inactivation of virus (30 minutes incubation, plaque assay); assay type: cell-based, Type 1, Troisbel strain; conditions: for Virus titre (inactivation of virus): 30 minutes, control 5.4 × 10^4 (GLA-alcohol), 4.5 × 10^4 (GLA-AZT)
Description: 1. A virus solution containing 2×10^5 pfu/ml is prepared in phosphate buffered saline (Dulbecco's A).
2. The compound to be tested is made up in Dulbecco's medium A in a suitable range of dilutions.
3. Equal volumes of the virus and drug solution are mixed together. Control solutions without drug are also used.
4. The virus and drug are incubated for an appropriate period of time, in this example, thirty minutes.
5. The numbers of active viral particles in the solution are assayed as in items 4 and 5 under A.
The results are shown below (Table 6). In the Table, the figures are concentrations of viral particles present after incubation of the virus for 30 minutes with solutions of the drugs.

HTLV-IIIB = test: Anti-HIV activity assay, HTLV-IIIB (MT-4 cells, MTT method); assay type: cell-based; conditions: for Selectivity index (SI): CD50/ED50, HTLV-IIIB; for EC50: Human immunodeficiency virus 1, MT4, 120 h, MT-4 cells, five days, HTLV-IIIB, read-out: ED50 (50% effective dose)
Description: (§1) Results in relation to HIV virus were obtained by the method of Pauwels et al, Journal of Virological Methods 20, 309 to 321 (1988), as follows:
(§2) MT-4 cells (2.5×10^4 /well) were infected with HIV (100 CCID50) and incubated in the presence of varying concentrations of the test compounds (added immediately after virus infection). After five days incubation at 37° C. in a CO2 incubator, the number of viable cells was assessed by the MTT (tetrazolium) method. Anti-viral activity and cytotoxicity of the compounds are expressed as ED50 (50% effective dose) and CD50 (50% cytotoxic dose), respectively. SI (selectivity index=CD50 /ED50.
(§3) These are given in Table 8 and Table 9 below in relation to HTLV-IIIB and LAV-2ROD viruses.

LAV-2ROD = test: Anti-HIV activity assay, LAV-2ROD (MT-4 cells, MTT method); assay type: cell-based; conditions: for Selectivity index (SI): CD50/ED50, LAV-2ROD; for EC50: MT4, 120 h, read-out: ED50 (50% effective dose)
Description: as §1, §2, §3

in vitro = assay type: cell-based; conditions: human, mt-4 cells, CD50 (50% cytotoxic dose)
Description: as §1, §2

MT-4 cells = test: in vitro; assay type: cell-based; conditions: human, 120 h
Description: as §1, §2

herpes simplex = test: Topical application to herpetic lesion; assay type: in vivo, human; conditions: ointment or cream 2% by weight, 1 to 5 mg/cm^2 three times daily for one week; after three days
Description: Example (6) Ointment or cream for topical administration against herpes simplex, containing 2% by weight GLA-AZT. It may be applied to a human afflicted with a herpetic lesion at the afflicted sites at a rate of 1 to 5 mg/cm^2 three times daily for a period of one week.

Absolute solubilities = assay type: physicochemical
[3] = test system: herpes simplex virus Type I (HSV I); conditions: cited from earlier work; for Activity against herpes viruses (in words): herpes zoster and herpes simplex
[4] = test system: herpes simplex virus Type I; conditions: known, e.g. E. de Klerk et al 1980; cited from earlier work
viral polymerases = conditions: tested lacking the phosphate groups; cited from earlier work
[5] = cited from earlier work
adenosine deaminase = conditions: human plasma; cited from earlier work
[6] = MT-4 cells, five days, LAV-2ROD
[7] = chloroform, organic solvent or mixture, CHCl3 98 to 99% pure, with 1% balance ethanol to stabilise, read-out: Absolute solubility in CHCl3
[8] = in water, read-out: Absolute solubility in water
[9] = Human alphaherpesvirus 1, BHK-21, 24 h, read-out: Inhibition of viral replication (log10 reduction in virus titre)

Structure (SMILES) | Virucidal activity / inactivation of herpes virus (in words) [2] | Selectivity index (SI) (HTLV-IIIB) | EC50 (HTLV-IIIB) [µg/mL] | Selectivity index (SI) (LAV-2ROD) | EC50 (LAV-2ROD; [6]) [µg/mL] | CC50 at 120 h (in vitro) [µg/mL] | CD50 (50% cytotoxic dose) (MT-4 cells) [µg/mL] | % in chloroform phase (partition co-efficients, water/chloroform) [%] | solubility (Absolute solubilities; [7]) [µg/mL] | solubility (Absolute solubilities; [8]) [µg/mL] | Inactivation of virus (in words) ([2]; up to 50 mg/l) | also measured
CCCCC/C=C\C/C=C\C/C=C\CCCCC(=O)OC[C@H]1O[C@@H](n2cc(C)c(=O)[nH]c2=O)C[C@@H]1N=[N+]=[N-] [AK 1, GLA - 3'azido-3'-deoxythymidine] | virucidal | 7993 | 0.000754 (≈ 0.00143 µM) | 9770 | 0.000858 (≈ 0.00163 µM) | 6.03 (≈ 11.4 µM) | 8.3825 | > 99 |  |  |  | Viral titre (inhibition of replication) ([1]; 25 μg/ml (47.5 × 10^-6 molar)): 1.02 × 10^8 pfu/ml; Viral titre (inhibition of replication) ([1]; 50 μg/ml (95.0 × 10^-6 molar)): < 1.0 × 10^2 pfu/ml; Inhibition of herpes virus replication (in words) ([1]; listed as AZT-GLA): to inhibit its replication; Inhibition of herpes virus replication (in words) ([1]; listed as GLA-AZT): able to inhibit viral replication effectively; also recorded: gains the property of inhibiting herpes virus replication; Inhibition of viral replication (in words) ([1]; up to 100 mg/l): no inhibition; Virus titre (inactivation of virus) ([2]; 5 μg/ml): 2.7 × 10^3; Virus titre (inactivation of virus) ([2]; 25 μg/ml): < 1.0 × 10^2; log reduction at 1 µg/mL ([2]; Human alphaherpesvirus 1, 0.5 h, 1 mg/l, read-out: Inactivation of virus (log10 reduction in virus titre)): 1; log reduction at 5 µg/mL ([2]; Human alphaherpesvirus 1, 0.5 h, 5 mg/l, read-out: Inactivation of virus (log10 reduction in virus titre)): 2; Virucidal activity / inactivation of herpes virus (in words) ([2]; listed as AZT-GLA): able both to inactivate the herpes virus; Virucidal activity / inactivation of herpes virus (in words) ([2]; listed as GLA-AZT): more effective; Reduction in the size of the lesion (herpes simplex): Reduction in the size of the lesion is noted
CCCCC/C=C\C/C=C\C/C=C\CCCCC(=O)OCCOCn1cnc2c(=O)[nH]c(N)nc21 [AK 5] | lacking in this activity | < 1 | > 40 | < 1 | > 40 | 17.2 (≈ 35.4 µM) | 18.7751 | > 99 | > 50000 | 28 (≈ 57.7 µM) | no inactivation | log reduction at 0.1 µg/mL [1, 9]: 1; log reduction at 0.5 µg/mL [1, 9]: 2.2
CCCCC/C=C\C/C=C\CCCCCCCC(=O)OCCOCn1cnc2c(=O)[nH]c(N)nc21 [AK 6] | lacking in this activity | < 1 | > 40 | < 1 | > 100 |  |  | > 99 | > 50000 | 14 (≈ 28.7 µM) | no inactivation | log reduction at 1 µg/mL ([1]; Human alphaherpesvirus 1, BHK-21, 24 h, 1 mg/l, read-out: Inhibition of viral replication (log10 reduction in virus titre)): 2.4; log reduction at 5 µg/mL ([1]; Human alphaherpesvirus 1, BHK-21, 24 h, 5 mg/l, read-out: Inhibition of viral replication (log10 reduction in virus titre)): 4.2
Cc1cn([C@H]2C[C@H](N=[N+]=[N-])[C@@H](CO)O2)c(=O)[nH]c1=O [AK 7, zidovudine, reference compound] | no effect | 4131 | 0.000372 (≈ 0.00139 µM) | 2928 | 0.00053 (≈ 0.00198 µM) | 1.54 (≈ 5.75 µM) | 1.5633 | 15 |  |  | no inactivation | Inhibition of herpes virus replication (in words) ([1]; listed as AZT): no effect; also recorded: not found; Inhibition of viral replication (in words) ([1]; up to 100 mg/l): No inhibition; Activity against herpes viruses (in words) [3]: inactive; Effect on replication of herpes simplex virus (in words) ([3]; known, e.g. E. de Klerk et al 1980): no effect; Effect on inactivation of herpes simplex virus (in words) [4]: no effect; Activity against viral polymerases (in words) (viral polymerases): inactive; Excreted unchanged into the urine ([5]; in vivo): Fifteen to twenty; Metabolised by hepatic glucuronidation ([5]; to 3'-azido-2'-3'-dideoxy-5'-glucuronyl thymidine): seventy five
Cc1cn2c(nc1=O)O[C@@H]1C[C@H]2O[C@@H]1CO [AK 8, Anhydrothymidine, reference compound] | no effect | 59 | 13.1 (≈ 58.4 µM) | 15 | 21.8 (≈ 97.2 µM) |  |  | 4 |  |  |  | Inhibition of herpes virus replication (in words) [1]: no effect; Inhibition of viral replication (in words) ([1]; concentration not given, Table 7): no inhibition; Inactivation of virus (in words) ([2]; 10 mg/l): no inactivation; log reduction at 25 µg/mL ([2]; Human alphaherpesvirus 1, 0.5 h, 25 mg/l, read-out: Inactivation of virus (log10 reduction in virus titre)): 0.7; Activity against herpes viruses (in words) [3]: inactive
Nc1nc2c(ncn2COCCO)c(=O)[nH]1 [AK 9, Acyclovir, reference compound] |  | < 1 | > 1000 | < 1 |  | 300 (≈ 1330 µM) | 397.5805 | 1 | 6 (≈ 26.6 µM) | 1590 (≈ 7060 µM) | no inactivation | log reduction at 0.1 µg/mL [1, 9]: 2; log reduction at 0.5 µg/mL [1, 9]: 2.3; EC50 (LAV-2ROD): > 10000 µg/mL; Activity against viral polymerases (in words) (viral polymerases): inactive
Nc1ncnc2c1ncn2[C@H]1CC[C@@H](CO)O1 [ddA] |  |  |  |  |  |  |  |  |  |  |  | Conversion of ddA to ddI (adenosine deaminase): within minutes
